Assay results published in patent US20220340665A1, “INHIBITOR AGAINST EXPRESSION OF IMMUNE CHECKPOINT MOLECULE” (RENASCIENCE INC., priority 2019, published 2022).

How the values were obtained:
[1] = system: M2 macrophages (CD11b+CD206+); test: PD-L1 expression in M2 macrophages from cultured mouse spleen cells (Experimental Example 6); format: cell-based; conditions: inhibitor 50 μM with rPAI-1 100 nM, 4 days; listed as PAI-1 inhibitor
Protocol: Specifically, 5×10^6 mouse spleen cells were cultured on a 24-well plate at 37° C., 5% CO2, overnight. After floating cells were removed, rPAI-1 (100 nM) was added, and culturing was performed at 37° C., 5% CO2, for 4 days. After culture, adherent cells were collected by trypsin treatment and stained with an anti-CD11b antibody and an anti-CD206 antibody, in addition to an anti-PD-L1 antibody. Then, gating was performed on CD11b and CD206 double-positive (CD11b^+CD206^+) M2 macrophages, and the PD-L1 expression level thereof was determined with a flow cytometer. As a comparative control experiment, the PD-L1 expression level in untreated mouse spleen cells (control) was determined in the same manner. Further, the PAI-1 inhibitor (50 μM) was added to the same mouse spleen cells, together with rPAI-1 (100 nM), followed by culture under the same conditions as described above. Then, adherent cells were collected and the PD-L1 expression level was determined with a flow cytometer in the same manner.

[2] = system: cancer-associated fibroblasts (CAF); test: Cancer-associated fibroblasts in MC38 tumor sections (Experimental Example 15); format: in vivo, mice (C57BL6); conditions: oral administration for one week, vs vehicle
From the text: 1) The untreated group and 3) the single-administration group of PAI-1 inhibitor (cancer-bearing mice) of Experimental Example 11, after tumor engraftment, were orally administered with physiological saline (vehicle) or the PAI-1 inhibitor for one week. Thereafter, the tumor was collected, fixed with paraformaldehyde, and then embedded in paraffin to prepare tissue sections. The tissue sections were stained with an anti-SMAcα antibody, and the percentage of cancer-associated fibroblasts (CAF) was observed under a microscope.

## O=C(Nc1ccc(Cl)cc1C(=O)[O-])c1cccc(-c2cccc3cccnc23)c1.[Na+] [Example 68, 5-chloro-2-(((3-(quinolin-8-yl)phenyl)carbonyl)amino)sodium benzoate]
[1]
  enhancement of PD-L1 expression by rPAI-1 in M2 macrophages: completely suppressed
[2]
  percentage of intratumoral infiltration of cancer-associated fibroblasts: reduced
